# Experimental data as given in patent US20090312282A1, “Novel Low Molecular Weight Hyaluronic Acid and/or Salt Thereof, and Cosmetic Preparation, Pharmaceutical Composition, and Food Composition Each Using Same” (Q. P. Corporation, priority 2006, published 2009).
# System: hairless mice (Hos: HR-1)
# Details: mouse, in vivo
# Description: In this test example, the low-molecular-weight hyaluronic acid according to the invention was percutaneously administered to a mouse to evaluate the percutaneous absorbability of the low-molecular-weight hyaluronic acid. Six-week-old (when the test was started) male hairless mice (Hos: HR-1) (purchased from Japan SLC Inc.) […] Specifically, the hyaluronic acid was labeled with a fluorescent substance by allowing a carboxylic acid group of the hyaluronic acid to react with DMEQ-hydrazide. […] The HPLC analysis conditions were as follows. • Analyzer: Waters 2690 470 • Column: Shodex suger KS807 (gel filtration column) • Column temperature: 40° C. • Flow rate: 0.5 mL/min • Injection amount: 20 microliters • Mobile phase: 0.003 mol/L phosphoric acid buffer containing 0.15 mol/L sodium chloride • Fluorescence analysis conditions: excitation wavelength: 365 nm, fluorescence wavelength: 447 nm […] It is considered that the peak was also detected in the test group 3 due to a fluorescent substance (e.g., vitamin, aromatic amino acid, and cholesterol) originally contained in the living body. […] The STD solution was analyzed by HPLC to determine the peak area.
Substance,fluorescence intensity (peak) in the skin compared with control group (test group 3),amount of percutaneous absorption of hyaluronic acid (increase in hyaluronic acid per g of skin)
hyaluronic acid [Sample 2],no significant difference,–
low-molecular-weight hyaluronic acid [Example 2],–,"increased with time when the sample attachment time was 1 to 3 hours, and almost reached equilibrium when the sample attachment time was 3 to 5 hours"
